Source: publication PMC9747611 (Hypertension Research, 2022)
“Also recorded” adds a separate entry of the source. Like-named read-outs stand apart in the source and are kept apart here.

Columns and labels:
Type in all cases: in vivo, human
[1] = Plasma pharmacokinetics of baxdrostat and CIN-107-M, multiple ascending dose phase 1 study; settings: for RAUC (accumulation ratio based on AUC) / RCmax (accumulation ratio based on Cmax): day 10 vs day 1, mean ± SD; for Cmax / Tmax / Vd/F / half-life: human, plasma, po; for Vd/F: read-out: Vss/F
Procedure: Subjects were randomized in a 3:1 ratio to baxdrostat or placebo once daily for 10 days as follows: • Cohort 1: 2.5 mg baxdrostat or matching placebo on a low-salt diet, 9 subjects receiving baxdrostat and 3 subjects receiving placebo • Cohort 2: 5.0 mg baxdrostat or matching placebo on a low-salt diet, 9 subjects receiving baxdrostat and 3 subjects receiving placebo • Cohort 3: 1.5 mg baxdrostat or matching placebo on a normal-salt diet, 9 subjects receiving baxdrostat and 3 subjects receiving placebo • Cohort 4: 2.5 mg baxdrostat or matching placebo on a normal-salt diet, 6 subjects receiving baxdrostat and 2 subjects receiving placebo • Cohort 5: 0.5 mg baxdrostat or matching placebo on a normal-salt diet, 9 subjects receiving baxdrostat and 3 subjects receiving placebo.
The study drug was a 2 mg/mL baxdrostat oral solution and matching oral placebo solution. Subjects received a single dose of oral solution of baxdrostat or placebo on the mornings of days 1 through 10 at 8:00 a.m. (± 2 h). On days 1 and 10, the dose was given following an overnight fast (of at least 8 h), and subjects remained fasted for at least 4 h after dosing on these days. On all other days, subjects fasted for a minimum of 2 h before and 2 h after dosing.
(§1) Plasma and urine samples were analyzed to measure concentrations of baxdrostat and its primary metabolite (CIN-107-M), aldosterone and its precursors, cortisol and its precursor, and ACTH using a validated liquid chromatography tandem mass spectrometry method (LC-MS/MS). The quantifiable ranges for both baxdrostat and its metabolite CIN-107-M in plasma and urine were 0.05 to 50 ng/mL (low range) and 5 to 2500 ng/mL (high range), using baxdrostat-d5 and CIN-107-M-d3, respectively, as the internal standards. Plasma samples were extracted by protein precipitation with methanol, followed by analysis by LC-MS/MS with electrospray ionization in positive mode and multiple reaction monitoring. All scheduled study-related laboratory tests were performed by Medpace Reference Laboratories (Cincinnati, OH, USA), Medpace Bioanalytical Laboratories (Cincinnati, OH, USA), Mercy Health—West Hospital Laboratory (Cincinnati, OH, USA), or Laboratory Corporation of America (Dublin, OH, USA).
Blood samples were collected prior to and after dosing on days 1 and 10 for measurement of plasma baxdrostat and CIN-107-M concentrations to characterize single-dose and steady-state PK. Pharmacokinetic parameters were calculated by standard noncompartmental methods using Phoenix WinNonlin™ (Certara, Inc., Princeton, NJ) and verified with SAS (SAS Institute, Inc., Cary, NC) software. […] Steady-state plasma PK parameters consisted of accumulation ratio based on Cmax (RCmax), accumulation ratio based on AUC (RAUC), apparent first-order terminal elimination rate constant (λz), terminal phase elimination half-life (t1/2), apparent plasma clearance (CLss/F), and apparent volume of distribution (Vss/F).

[2] = Urine pharmacokinetics (fraction of dose excreted renally)
Procedure: as §1
The cumulative amount of drug excreted in urine on day 1 (Ae,D1) and day 10 (Ae,D10), fraction of dose excreted renally on day 1 (Fe,D1) and day 10 (Fe,D10), and renal clearance on day 1 (CLR,D1) and day 10 (CLR,D10) composed single-dose urine PK parameters.

[3] = system: plasma cortisol; assay: Plasma and urine cortisol and 11-deoxycortisol (pharmacodynamics, with ACTH challenge in low-salt cohorts)
Procedure: Cohorts 1 and 2 also underwent an ACTH (Cortrosyn^TM) challenge at baseline (day −1), 1 h after the first dose of study drug on day 1, and 1 h after the final dose of study drug on day 10. This was done to increase aldosterone and cortisol levels to more thoroughly evaluate the specificity of baxdrostat for targeting aldosterone synthase. The ACTH challenge consisted of an intravenous injection of 0.25 mg Cortrosyn^TM administered over 2 min after an overnight fast.
as §1, with “All scheduled study-related laboratory tests were performed by Medpace Reference Laboratories (Cincinnati, OH, USA), Medpace Bioanalytical Laboratories (Cincinnati, OH, USA), Mercy Health—West Hospital Laboratory (Cincinnati, OH, USA), or Laboratory Corporation of America (Dublin, OH, USA).” left out
Plasma PD measures included concentrations of aldosterone, 18-hydroxycorticosterone, corticosterone, 11-deoxycorticosterone, cortisol (free and total), 11-deoxycortisol, ACTH, sodium, chloride, and potassium. AUCs were calculated using a noncompartmental analysis and the linear trapezoidal/linear interpolation method. […]
Subjects who received placebo were pooled into 2 treatment groups: placebo with low-salt diet and placebo with normal-salt diet. Descriptive statistics were calculated for PK, PD, and safety measures. […] The results of the exploratory dose proportionality power model were assessed using the Smith criteria (0.9031, 1.0969) and the less stringent Hummel criteria (0.6990, 1.3010).

[4] = Plasma electrolytes and renal function (pharmacodynamics)
Procedure: Plasma PD measures included concentrations of aldosterone, 18-hydroxycorticosterone, corticosterone, 11-deoxycorticosterone, cortisol (free and total), 11-deoxycortisol, ACTH, sodium, chloride, and potassium. AUCs were calculated using a noncompartmental analysis and the linear trapezoidal/linear interpolation method. Urine PD measures included concentrations of aldosterone, cortisol (free and total), tetrahydroaldosterone, sodium, chloride, potassium, creatinine, and phosphorus. Other PD measures were seated, orthostatic, and positional changes in vital signs, as well as changes in body weight and BMI. Safety assessments involved adverse events, physical examinations, ECGs, orthostatic vital signs, and clinical laboratory evaluations.

[5] = 0.5 mg oral once daily, normal-salt diet, day 10, mean ± SD
[6] = 0.5 mg oral once daily, normal-salt diet
[7] = 1.5 mg oral once daily, normal-salt diet, day 10, mean ± SD
[8] = 1.5 mg oral once daily, normal-salt diet
[9] = 2.5 mg oral once daily, low-salt diet, day 10, mean ± SD
[10] = 2.5 mg oral once daily, low-salt diet
[11] = 2.5 mg oral once daily, normal-salt diet, day 10, mean ± SD, n=5
[12] = 2.5 mg oral once daily, normal-salt diet, n=5
[13] = 5.0 mg oral once daily, low-salt diet, day 10, mean ± SD
[14] = 5.0 mg oral once daily, low-salt diet
[15] = also with ACTH challenge in low-salt diet groups
[16] = 0.5-5.0 mg once daily for 10 days

Molecule CCC(=O)N[C@@H]1CCCc2c(-c3ccc4c(c3)CCC(=O)N4C)cncc21 [baxdrostat] has an AUC0-24hr ([1]; 0.5 mg oral once daily, normal-salt diet, day 1, mean ± SD) of 79.47 ± 17.34 h‧ng/mL, an AUC0-tau [1, 5] of 155.19 ± 35.70 h‧ng/mL and a CLss/F [1, 5] of 3.42 ± 1.01 L/h. For the same molecule, the “RAUC (accumulation ratio based on AUC)” value [1, 6] was 1.96 ± 0.27, the “RCmax (accumulation ratio based on Cmax)” value [1, 6] was 1.83 ± 0.26 and the AUC0-24hr ([1]; 1.5 mg oral once daily, normal-salt diet, day 1, mean ± SD) was 205.31 ± 36.74 h‧ng/mL. The AUC0-tau [1, 7] was 479.67 ± 138.21 h‧ng/mL, the CLss/F [1, 7] was 3.35 ± 0.92 L/h and the “RAUC (accumulation ratio based on AUC)” value [1, 8] was 2.31 ± 0.32. For the same molecule, the “RCmax (accumulation ratio based on Cmax)” value [1, 8] was 2.13 ± 0.24, the AUC0-24hr ([1]; 2.5 mg oral once daily, low-salt diet, day 1, mean ± SD) was 365.79 ± 65.51 h‧ng/mL and the AUC0-tau [1, 9] was 782.99 ± 143.02 h‧ng/mL. For the same molecule, the CLss/F [1, 9] was 3.28 ± 0.53 L/h, the “RAUC (accumulation ratio based on AUC)” value [1, 10] was 2.15 ± 0.16 and the “RCmax (accumulation ratio based on Cmax)” value [1, 10] was 1.97 ± 0.30. For the same molecule, the AUC0-24hr ([1]; 2.5 mg oral once daily, normal-salt diet, day 1, mean ± SD) was 343.98 ± 92.44 h‧ng/mL, the AUC0-tau [1, 11] was 676.51 ± 343.78 h‧ng/mL and the CLss/F [1, 11] was 4.32 ± 1.59 L/h. The “RAUC (accumulation ratio based on AUC)” value [1, 12] was 1.99 ± 0.45, the “RCmax (accumulation ratio based on Cmax)” value [1, 12] was 1.71 ± 0.58 and the AUC0-24hr ([1]; 5.0 mg oral once daily, low-salt diet, day 1, mean ± SD) was 657.85 ± 137.40 h‧ng/mL. For the same molecule, the AUC0-tau [1, 13] was 1659.41 ± 440.51 h‧ng/mL, the CLss/F [1, 13] was 3.21 ± 0.84 L/h and the “RAUC (accumulation ratio based on AUC)” value [1, 14] was 2.51 ± 0.26. For the same molecule, the “RCmax (accumulation ratio based on Cmax)” value [1, 14] was 2.42 ± 0.33, the “dose proportionality of Cmax and AUC (power model, Hummel criteria)” value ([1]; day 1 (Cmax, AUC0-24 h) and day 10 (Cmax, AUC0-tau, AUC0-t)) was “proportional increase” and the Cmax ([1]; 0.5 mg, 0.5 mg oral once daily, normal-salt diet, day 1, mean ± SD, n=9, read-out: Cmax,D1) was 5.36 ± 1.25 ng/mL. It also gave a Tmax ([1]; 0.5 mg, 0.5 mg oral once daily, normal-salt diet, day 1, read-out: Tmax,D1, median (min, max)) of 2 h, a Cmax ([1]; 0.5 mg, 0.5 mg oral once daily, normal-salt diet, day 10, mean ± SD, read-out: Cmax,D10) of 9.72 ± 2.27 ng/mL and a Vd/F ([1]; 0.5 mg, 0.5 mg oral once daily, normal-salt diet, day 10, mean ± SD) of 152 ± 44.5 L. The half-life ([1]; 0.5 mg, 0.5 mg oral once daily, normal-salt diet, day 10, mean ± SD, read-out: t1/2 (converted)) was 31.2 ± 5.8 h, the Tmax ([1]; 0.5 mg, 0.5 mg oral once daily, normal-salt diet, day 10, read-out: Tmax,D10, median (min, max)) was 2 h and the Cmax ([1]; 1.5 mg, 1.5 mg oral once daily, normal-salt diet, day 1, mean ± SD, n=9, read-out: Cmax,D1) was 14 ± 2.24 ng/mL. For the same molecule, the Tmax ([1]; 1.5 mg, 1.5 mg oral once daily, normal-salt diet, day 1, read-out: Tmax,D1, median (min, max)) was 2.5 h, the Cmax ([1]; 1.5 mg, 1.5 mg oral once daily, normal-salt diet, day 10, mean ± SD, read-out: Cmax,D10) was 29.9 ± 6.1 ng/mL and the Vd/F ([1]; 1.5 mg, 1.5 mg oral once daily, normal-salt diet, day 10, mean ± SD) was 137 ± 15.8 L. The half-life ([1]; 1.5 mg, 1.5 mg oral once daily, normal-salt diet, day 10, mean ± SD, read-out: t1/2 (converted)) was 29.9 ± 7.71 h, the Tmax ([1]; 1.5 mg, 1.5 mg oral once daily, normal-salt diet, day 10, read-out: Tmax,D10, median (min, max)) was 2.5 h and the Cmax ([1]; 2.5 mg, 2.5 mg oral once daily, low-salt diet, day 1, mean ± SD, n=9, read-out: Cmax,D1) was 28.1 ± 5.9 ng/mL. It also gave a Tmax ([1]; 2.5 mg, 2.5 mg oral once daily, low-salt diet, day 1, read-out: Tmax,D1, median (min, max)) of 3 h, a Cmax ([1]; 2.5 mg, 2.5 mg oral once daily, low-salt diet, day 10, mean ± SD, read-out: Cmax,D10) of 54 ± 7.56 ng/mL and a Vd/F ([1]; 2.5 mg, 2.5 mg oral once daily, low-salt diet, day 10, mean ± SD) of 135 ± 36.7 L. It also gave a half-life ([1]; 2.5 mg, 2.5 mg oral once daily, low-salt diet, day 10, mean ± SD, read-out: t1/2 (converted)) of 28.4 ± 4.75 h, a Tmax ([1]; 2.5 mg, 2.5 mg oral once daily, low-salt diet, day 10, read-out: Tmax,D10, median (min, max)) of 2 h and a Cmax ([1]; 2.5 mg, 2.5 mg oral once daily, normal-salt diet, day 1, mean ± SD, n=6, read-out: Cmax,D1) of 26.2 ± 4.76 ng/mL. It also gave a Tmax ([1]; 2.5 mg, 2.5 mg oral once daily, normal-salt diet, day 1, read-out: Tmax,D1, median (min, max)) of 3 h, a Cmax ([1]; 2.5 mg, 2.5 mg oral once daily, normal-salt diet, day 10, mean ± SD, n=5, read-out: Cmax,D10) of 43.9 ± 18.7 ng/mL and a Vd/F ([1]; 2.5 mg, 2.5 mg oral once daily, normal-salt diet, day 10, mean ± SD, n=5) of 150 ± 42.4 L. For the same molecule, the half-life ([1]; 2.5 mg, 2.5 mg oral once daily, normal-salt diet, day 10, mean ± SD, n=5, read-out: t1/2 (converted)) was 25.6 ± 5.95 h, the Tmax ([1]; 2.5 mg, 2.5 mg oral once daily, normal-salt diet, day 10, n=5, read-out: Tmax,D10, median (min, max)) was 3 h and the Cmax ([1]; 5 mg, 5.0 mg oral once daily, low-salt diet, day 1, mean ± SD, n=9, read-out: Cmax,D1) was 47.3 ± 12.3 ng/mL. It also gave a Tmax ([1]; 5 mg, 5.0 mg oral once daily, low-salt diet, day 1, read-out: Tmax,D1, median (min, max)) of 3.02 h, a Cmax ([1]; 5 mg, 5.0 mg oral once daily, low-salt diet, day 10, mean ± SD, read-out: Cmax,D10) of 113 ± 25.9 ng/mL and a Vd/F ([1]; 5 mg, 5.0 mg oral once daily, low-salt diet, day 10, mean ± SD) of 134 ± 42 L. The half-life ([1]; 5 mg, 5.0 mg oral once daily, low-salt diet, day 10, mean ± SD, read-out: t1/2 (converted)) was 29.4 ± 6.47 h, the Tmax ([1]; 5 mg, 5.0 mg oral once daily, low-salt diet, day 10, read-out: Tmax,D10, median (min, max)) was 3 h and the Tmax ([1]; across doses 0.5-5.0 mg oral once daily, read-out: median Tmax (time to peak plasma concentration after dosing)) was ≤ 4 h. The half-life ([1]; range across doses 0.5-5.0 mg oral once daily for 10 days, read-out: mean t1/2) was 26 to 31 h, the “baxdrostat dose recovered unchanged in the urine” value ([2]; day 1) was “Approximately 7%” and the “baxdrostat dose recovered unchanged in the urine” value ([2]; steady state (day 10)) was ~ 32%. The “effect on urine free cortisol” value ([3]; 24 h urine collections) was “no meaningful effect”, the “effect on plasma 11-deoxycortisol” value [3, 15] was “no meaningful effect” and the “effect on plasma cortisol (total or free)” value [3, 15] was “no meaningful impact; also recorded: no meaningful effect”. The “change in plasma potassium levels” value [4, 16] was “increases”, the “change in plasma sodium levels” value [4, 16] was “mild dose-dependent decreases” and the “reduction in glomerular filtration rate” value ([4]; once daily for 10 days) was < 15%.
